From patent US20260199273A1, “Compounds for the Treatment of Neuromuscular Disorders” (NMD PHARMA A/S, priority 2022, published 2026)
pEC50: −log10 of the molar value.

Legend:
[1] = target: T1, CIC-1 ion channel (Rattus norvegicus, UniProt P35524); test: Electrophysiological measurement of compound inhibition of CIC-1 in rat muscle (Gm in soleus fibres, three micro-electrodes); type: cell-based; conditions: Gm in individual fibres of whole rat soleus muscles, approx. 30° C., four increasing compound concentrations; read-out: Potency Range (EC50, inhibition of CIC-1 ion channel)
T1 construct: from tissue; host or cells: whole soleus muscle of 12-14 week old Wistar rats
T1 sequence (P35524 1-994): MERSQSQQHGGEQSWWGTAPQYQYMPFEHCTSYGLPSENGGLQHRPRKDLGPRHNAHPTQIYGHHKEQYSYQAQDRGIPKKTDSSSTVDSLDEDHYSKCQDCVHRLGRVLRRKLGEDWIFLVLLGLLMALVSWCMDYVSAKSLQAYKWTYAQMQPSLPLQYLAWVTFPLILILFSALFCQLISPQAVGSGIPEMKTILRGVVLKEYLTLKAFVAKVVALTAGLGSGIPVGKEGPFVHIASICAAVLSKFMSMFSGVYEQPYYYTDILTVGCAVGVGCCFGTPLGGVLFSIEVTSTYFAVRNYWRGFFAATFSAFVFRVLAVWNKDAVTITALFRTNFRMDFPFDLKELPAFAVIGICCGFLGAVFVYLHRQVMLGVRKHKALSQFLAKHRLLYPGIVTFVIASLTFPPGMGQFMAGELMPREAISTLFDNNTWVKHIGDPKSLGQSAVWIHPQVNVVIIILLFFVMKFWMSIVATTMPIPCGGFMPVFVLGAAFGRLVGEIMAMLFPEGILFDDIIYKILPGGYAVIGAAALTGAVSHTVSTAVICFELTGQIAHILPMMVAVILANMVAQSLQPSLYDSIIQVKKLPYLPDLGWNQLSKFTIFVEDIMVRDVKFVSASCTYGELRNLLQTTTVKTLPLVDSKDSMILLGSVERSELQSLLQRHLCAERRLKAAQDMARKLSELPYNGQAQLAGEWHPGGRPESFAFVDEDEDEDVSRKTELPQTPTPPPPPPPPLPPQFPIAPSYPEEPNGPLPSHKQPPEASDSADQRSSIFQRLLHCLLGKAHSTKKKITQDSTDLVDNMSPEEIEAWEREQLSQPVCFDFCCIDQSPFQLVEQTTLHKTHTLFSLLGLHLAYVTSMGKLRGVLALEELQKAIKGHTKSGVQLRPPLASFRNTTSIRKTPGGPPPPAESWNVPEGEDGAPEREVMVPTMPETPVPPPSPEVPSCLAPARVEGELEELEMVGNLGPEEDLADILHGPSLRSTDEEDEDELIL
Experimental: Apparent CIC-1 affinity was reported by the concentration of compound at which 50% of the compound's full inhibition of CIC-1 was observed (EC50) (see also WO2019/115777).
Experimentally, Gm was measured in individual fibres of whole rat soleus muscles using a three micro-electrodes technique described in this example and in full detail elsewhere (Riisager et al., Determination of cable parameters in skeletal muscle fibres during repetitive firing of action potentials. Journal of Physiology, 2014, 592, 4417-4429). Briefly, intact rat soleus muscles were dissected out from 12-14 week old Wistar rats and placed in an experimental chamber that was perfused with a standard Krebs Ringer solution containing 122 mM NaCl, 25 mM NaHCO3, 2.8 mM KCl, 1.2 mM KH2PO4, 1.2 mM MgSO4, 1.3 mM CaCl2, 5.0 mM D-glucose. During experiments, the solution was kept at approx. 30° C. and continuously equilibrated with a mixture of 95% O2 and 5% CO2, pH ~7.4. The experimental chamber was placed in Nikon upright microscope that was used to visualize individual muscle fibres and the three electrodes (glass pipettes filled with 2 M potassium citrate). For Gm measurements, the electrodes were inserted into the same fibre with known inter-electrode distances of 0.35-0.5 mm (V1-V2, X1) and 1.1-1.5 mm (V1-V3, X3). The membrane potential of the impaled muscle fibre was recorded by all electrodes. Two of the electrodes were furthermore used to inject 50 ms current pulses of −30 nA. […] The steady state voltage deflection at each distance was divided by the magnitude of current injected (−30 nA) and the resulting transfer resistances were plotted against inter-electrode distance and the data was fitted to a mono-exponential function from which Gm could be calculated using linear cable theory.
To establish a dose response relationship, Gm was first determined in 10 muscle fibres in the absence of compound and then at four increasing compound concentrations with Gm determinations in 5-10 fibres at each concentration. The average Gm values at each concentration were plotted against compound concentration and the data was fitted to sigmoidal function to obtain an EC5o value.

[2] = test system: isolated rat soleus nerve-muscle preparations; test: Measurement of force in an in vitro model: recovery of nerve-stimulated contractile force after tubocurarine; conditions: 40 min, after 40 mins of compound exposure, tubocurarine (115 nM) for 90 minutes, read-out: Point increase (%): percentage increase of initial force that was restored; for activation at 50 µM: 50 μM of test compound; for activation at 10 µM: 10 μM of test compound
Experimental: In one aspect, the invention relates to a method for recovery of force in muscles with neuromuscular dysfunction, said method comprising administering a compound or a composition as defined herein to a subject in need thereof. The term “recovery of force in muscles with neuromuscular dysfunction” as used herein refers to the ability of a compound to recover contractile force in nerve-stimulated healthy rat muscle after exposure to submaximal concentration (115 nM) of tubocurarine for 90 minutes.
Recovery of force is quantified as the percentage of the force prior to tubocurarine that is recovered after addition of the compound. In one embodiment, said recovery of force is >5%, such as >10%, such as >15%, such as >20%, such as >25%, such as >30%, such as >35%.
The current disclosure relates to compounds that inhibit CIC-1 ion channels and increase muscle excitability and thereby improve muscle function in clinical conditions where muscle activation is failing. Such conditions result in loss of contractile function of skeletal muscle, weakness and excessive fatigue. In this series of experiments the compounds were tested for their ability to restore contractile function of isolated rat muscle when the neuromuscular transmission had been compromised akin to neuromuscular disorders.
Experimentally, soleus muscles from 4-5 week old rats were isolated with the motor nerve remaining attached. The nerve-muscle preparations were mounted in experimental setups that enabled electrical stimulation of the motor nerve. Stimulation of the motor nerve led to activation of the muscle fibres and ensuing force production that was recorded. The nerve-muscle preparations were also in these experiments incubated in the standard Krebs Ringer (see example 15) and the solution was heated to 30° C. and continuously equilibrated with a mixture of 95% O2 and 5% CO2, pH ~7.4.
After mounting the nerve-muscle preparation in the experimental setup, the contractile function of the muscle was initially assessed under the control conditions. Sub-maximal concentration of tubocurarine (115 nM), an acetylcholine receptor antagonist, was then added to the experimental bath to impose partial inhibition of the ability of the motor nerve to activate the muscle fibres. The experimental condition mimics the failing neuromuscular transmission in a range of neuromuscular disorders. After addition of tubocurarine the contractile force declined over the next 90 minutes to 10-50% of the control force. The test compound was then added to obtain the required compound concentration in the bath and the contractile force recovered was measured. To quantify the ability of the compound to restore force the percentage of the initial force that was restored was determined after 40 mins of compound exposure and the point increase is reported in Tables 3 to 7.

SMILES | pEC50 [1] | activation at 50 µM [2] | activation at 10 µM [2]
Cc1cc2c(c(C(=O)O)c1C)CCC2 [Compound A-4, 5,6-dimethyl-2,3-dihydro-1H-indene-4-carboxylic acid] | 4.70 to 5.00 | 30% | –
CN1CCCc2cc(Cl)c(F)c(C(=O)O)c21 [Compound A-40, 6-Chloro-7-fluoro-1-methyl-1,2,3,4-tetrahydroquinoline-8-carboxylic acid] | 5.70 to 6.70 | – | 39%
CSc1c(Cl)cc2c(c1C(=O)O)CCC2 [Compound A-23, 6-Chloro-5-(methylsulfanyl)-2,3-dihydro-1H-indene-4-carboxylic acid] | 5.00 to 5.70 | 44% | –
O=C(O)c1c(Cl)c(F)cc2c1N(Cc1ccccc1)CCC2 [Compound A-74, 1-Benzyl-7-chloro-6-fluoro-1,2,3,4-tetrahydro-8-quinolinecarboxylic acid] | 5.70 to 6.70 | – | 11%
COc1c(Cl)cc2c(c1C(=O)O)SCCC2 [Compound A-31, 6-chloro-7-methoxy-3,4-dihydro-2H-1-benzothiopyran-8-carboxylic acid] | 5.70 to 6.70 | – | 48%
Cc1cc2c(c(C(=O)O)c1C)CCCC2 [Compound A-5, 2,3-dimethyl-5,6,7,8-tetrahydronaphthalene-1-carboxylic acid] | 4.70 to 5.00 | 43% | –
O=C(O)c1c2c(cc(Cl)c1OC(F)F)CCC2 [Compound A-10, 6-Chloro-5-(difluoromethoxy)-2,3-dihydro-1H-indene-4-carboxylic acid] | 5.00 to 5.70 | – | 36%
COc1c(Cl)cc2c(c1C(=O)O)C1CCC2C1 (stereo not shown) [Compound A-16, 5-Chloro-4-methoxytricyclo[6.2.1.0^2,7]undeca-2(7),3,5-triene-3-carboxylic acid] | 5.70 to 6.70 | – | 43%
Cc1cc2c(c(C(=O)O)c1F)OCCC2 [Compound A-50, 7-fluoro-6-methyl-3,4-dihydro-2H-1-benzopyran-8-carboxylic acid] | 5.00 to 5.70 | 51% | –
CSc1c(Cl)cc2c(c1C(=O)O)CCCC2 [Compound A-32, 3-Chloro-2-(methylsulfanyl)-5,6,7,8-tetrahydronaphthalene-1-carboxylic acid] | 5.70 to 6.70 | – | 24%
O=C(O)c1c(Cl)c(F)cc2c1CCCC2 [Compound A-27, 2-chloro-3-fluoro-5,6,7,8-tetrahydronaphthalene-1-carboxylic acid] | 5.00 to 5.70 | – | 38%
CCc1cc2c(c(C(=O)O)c1F)CCCC2 [Compound A-51, 3-Ethyl-2-fluoro-5,6,7,8-tetrahydronaphthalene-1-carboxylic acid] | 5.00 to 5.70 | – | 29%
O=C(O)c1c2c(cc(Cl)c1OC(F)F)CCCC2 [Compound A-25, 3-Chloro-2-(difluoromethoxy)-5,6,7,8-tetrahydronaphthalene-1-carboxylic acid] | 5.70 to 6.70 | – | 43%
O=C(O)c1c(F)c(Cl)cc2c1N(Cc1ccsc1)CCC2 [Compound A-70, 6-Chloro-7-fluoro-1-[(3-thienyl)methyl]-1,2,3,4-tetrahydro-8-quinolinecarboxylic acid] | 5.70 to 6.70 | – | 25%

The next lines start with results.

pEC50 [1] | SMILES | activation at 50 µM [2] | activation at 10 µM [2]
5.00 to 5.70 | COc1c(Cl)cc2c(c1C(=O)O)C1CCC2CC1 [Compound A-29, 5-Chloro-4-methoxytricyclo[6.2.2.0^2,7]dodeca-2,4,6-triene-3-carboxylic acid] | 42% | –
5.70 to 6.70 | O=C(O)c1c(F)c(Cl)cc2c1SCCC2 [Compound A-38, 6-Chloro-7-fluoro-3,4-dihydro-2H-1-benzothiopyran-8-carboxylic acid] | – | 48%
5.00 to 5.70 | COc1cc2c(c(C(=O)O)c1Cl)CCCCC2 [Compound A-24, 2-Chloro-3-methoxy-6,7,8,9-tetrahydro-5H-benzo[7]annulene-1-carboxylic acid] | 43% | –
5.00 to 5.70 | O=C(O)c1c(F)c(Cl)cc2c1NCCC2 [Compound A-41, 6-Chloro-7-fluoro-1,2,3,4-tetrahydroquinoline-8-carboxylic acid] | – | 49%
5.00 to 5.70 | O=C(O)c1c(F)c(Cl)cc2c1OCCC2 [Compound A-36, 6-Chloro-7-fluoro-3,4-dihydro-2H-1-benzopyran-8-carboxylic acid] | – | 43%
5.70 to 6.70 | C=Cc1c(Cl)cc2c(c1C(=O)O)CCCC2 [Compound A-35, 3-Chloro-2-ethenyl-5,6,7,8-tetrahydronaphthalene-1-carboxylic acid] | – | 16%
5.70 to 6.70 | O=C(O)c1c(F)c(Cl)cc2c1CCCC2 [Compound A-26, 3-Chloro-2-fluoro-5,6,7,8-tetrahydronaphthalene-1-carboxylic acid] | – | 52%
5.00 to 5.70 | Cc1cc2c(c(C(=O)O)c1F)SCCC2 [Compound A-48, 7-fluoro-6-methyl-3,4-dihydro-2H-1-benzothiopyran-8-carboxylic acid] | – | 25%
5.70 to 6.70 | CC1(C)CCc2cc(Cl)c(F)c(C(=O)O)c2O1 [Compound A-61, 6-Chloro-7-fluoro-2,2-dimethyl-3,4-dihydro-2H-1-benzopyran-8-carboxylic acid] | – | 63%
